Assay results from US20200289605A1, “COMPOSITION FOR IMPROVING OR PREVENTING NONALCOHOLIC FATTY LIVER” (KOHJIN LIFE SCIENCES CO., LTD., priority 2015, published 2020).

Experiments:
[1] = system: subjects who had NAFLD in 31 IU/L or more of ALT
[2] = system: Mice (C57/B6J) fed with high-fat food
Text: Mice (C57/B6J, 8 weeks old male) were divided into 4 groups (5 animals each), and the first group (DB) was freely fed with ordinary food (Certified Diet “MF” manufactured by Oriental Yeast Co., ltd.). The second group (HFD) was freely fed with high-fat food (High Fat Diet 32, manufactured by CLEA Japan, Inc.), […].
When the mouse was 20 weeks old, the body weight, the liver weight, the serum aspartate aminotransferase (AST), the alanine aminotransferase (ALT), the serum triglyceride (TG), the free fatty acid value (FFA) and the total cholesterol value (T-cho) were measured.

[3] = HFD6 and HFD60 groups in comparison to the HFD group, 20 weeks old
[4] = high-fat food mice, glutathione 6 or 60 mg/kg/day in water, 20 weeks old

Question: With `N[C@@H](CCC(=O)N[C@@H](CS)C(=O)NCC(=O)O)C(=O)O` [glutathione] as the compound, how does the “Effect of the present invention (ALT criterion)” value ([1]; Case IDs 10 to 16, 300 mg per day oral) read?
Answer: not affected

Question: And the “FibroScan (after treatment) CAP” value ([1]; after treatment, oral glutathione 300 mg per day, one value per subject (Case ID))?
Answer: 280 dBe

Question: What about the “FFA (free fatty acid value)” value [2, 3] of the same compound?
Answer: significant decrease

Question: What about the “T-cho (total cholesterol value)” value [2, 3] of the same compound?
Answer: significant decrease

Question: What about the “TG (triglyceride value)” value [2, 3] of the same compound?
Answer: significant decrease

Question: What about the “serum ALT” value [2, 3] of the same compound?
Answer: significant decrease

Question: And the “serum AST” value [2, 3]?
Answer: significant decrease

Question: And the “deposition of fat on the liver by high-fat food” value ([2]; high-fat food mice, glutathione 6 or 60 mg/kg/day in water)?
Answer: suppressed

Question: What about the liver weight [2, 4] of the same compound?
Answer: decreased dependently on the concentration

Question: And the “ratio of liver weight/body weight” value [2, 4]?
Answer: decrease of the body weight ratio was also recognized
